According to patent US10307437B2, “Methods for treatment of vascular endothelial dysfunction using nicotinamide mononucleotide” (The Regents of the University of Colorado, a Body Corporate, priority 2014, dated 2019):
“Also recorded” adds a separate entry of the source.

Key:
[1] = tested on: SIRT1; test: Western blot of aortic SIRT1 expression; type: in vivo, mice; settings: NMN 8 weeks
Excerpt: (§1) Young (4-8 months) C57Bl/6 male mice were purchased from Charles River and old (26-28 months) C57Bl/6 male mice were obtained from the National Institute on Aging rodent colony. Mice were fed normal rodent chow ad libitum for the duration of the study. After an acclimation period of 2 weeks, the young and old mice were divided into two subgroups: control animals (YC, OC) continued on normal drinking water and the other animals (YNMN, ONMN) received nicotinamide mononucleotide (NMN; Sigma-Aldrich Corp., St. Louis, Mo., USA) supplementation in the drinking water (240 mg/kg/day) for 8 weeks. All mice were housed in an animal care facility at the University of Colorado Boulder on a 12:12 hour light-dark cycle. […]
(§2) Aortas were used as a surrogate large elastic artery to provide sufficient tissue for analysis of protein expression by Western blot as described previously (Donato A. J. et al. 2013, J Physiol. 589, 4545-4554; Gano L. B. et al. 2014, Am J Physiol Heart Circ Physiol. 307, H1754-1763). […] Relative intensity was quantified using Image-J Software Version 1.0. […] The ratio of acetylated to total p65 was determined by running two identical Western blots. […] The ratio of acetylated to total p65 was determined for each animal and then normalized to the YC group mean.

[2] = tested on: nitrotyrosine; test: Western blot of aortic nitrotyrosine abundance; type: in vivo, mice; settings: NMN 8 weeks
Excerpt: as §1, §2

[3] = tested on: C57Bl/6 male mice; test: Ex vivo carotid artery vasodilatory responses after NMN supplementation in drinking water
[4] = tested on: elastin; test: Immunohistochemistry of aortic elastin; type: in vivo; settings: old mice, NMN 8 weeks
Excerpt: (§3) Young (4-8 months) C57Bl/6 male mice were purchased from Charles River and old (26-28 months) C57Bl/6 male mice were obtained from the National Institute on Aging rodent colony. Mice were fed normal rodent chow ad libitum for the duration of the study. After an acclimation period of 2 weeks, the young and old mice were divided into two subgroups: control animals (YC, OC) continued on normal drinking water and the other animals (YNMN, ONMN) received nicotinamide mononucleotide (NMN; Sigma-Aldrich Corp., St. Louis, Mo., USA) supplementation in the drinking water (240 mg/kg/day) for 8 weeks. All mice were housed in an animal care facility at the University of Colorado Boulder on a 12:12 hour light-dark cycle. All animal procedures conformed to the Guide to the Care and Use of Laboratory Animals (NIH publication No. 85-23, revised 1996) and were approved by the UCB Animal Care and Use Committee.
(§4) Immunohistochemistry was used to determine aortic expression of collagen type I and elastin as previously described (Fleenor B. S. et al. 2010 J Physiol. 588, 3971-3982). […] Digital photomicrographs were obtained using a Nikon Eclipse TS100 photomicroscope, and quantification was performed with Image-J Software Version 1.0. The adventitial and medial layers for each sample were quantified together for whole vessel expression. […]

[5] = tested on: collagen type I; test: Immunohistochemistry of aortic collagen type I; type: in vivo; settings: old mice, NMN 8 weeks
Excerpt: as §3, §4

[6] = tested on: superoxide; test: Aortic superoxide production by EPR spectroscopy; type: in vivo; settings: young mice, NMN 8 weeks
Excerpt: as §3
Measurement of superoxide production in the thoracic aorta was performed using electron paramagnetic resonance (EPR) spectroscopy, as previously described (LaRocca T. J. et al. 2013, Mech Ageing Dev. 134, 314-320). […] The signal amplitude was analyzed using an MS300 X-band EPR spectrometer (Magnettech GmbH, Berlin, Germany) with the following settings: centrefield, 3350 G; sweep, 80 G; microwave modulation, 3000 mG, and microwave attenuation, 7 dB. […]

[7] = biological target: T1, SIRT1 (Mus musculus, UniProt Q923E4); test: SIRT1 activation by ratio of acetylated to total NFκB (p65 subunit) in aorta; type: in vivo; design: Aortas were used as a surrogate large elastic artery to provide sufficient tissue for analysis of protein expression by Western blot; from tissue; host or cells: mouse aorta (C57Bl/6); settings: old mice, NMN 8 weeks
T1 sequence (Q923E4 1-737): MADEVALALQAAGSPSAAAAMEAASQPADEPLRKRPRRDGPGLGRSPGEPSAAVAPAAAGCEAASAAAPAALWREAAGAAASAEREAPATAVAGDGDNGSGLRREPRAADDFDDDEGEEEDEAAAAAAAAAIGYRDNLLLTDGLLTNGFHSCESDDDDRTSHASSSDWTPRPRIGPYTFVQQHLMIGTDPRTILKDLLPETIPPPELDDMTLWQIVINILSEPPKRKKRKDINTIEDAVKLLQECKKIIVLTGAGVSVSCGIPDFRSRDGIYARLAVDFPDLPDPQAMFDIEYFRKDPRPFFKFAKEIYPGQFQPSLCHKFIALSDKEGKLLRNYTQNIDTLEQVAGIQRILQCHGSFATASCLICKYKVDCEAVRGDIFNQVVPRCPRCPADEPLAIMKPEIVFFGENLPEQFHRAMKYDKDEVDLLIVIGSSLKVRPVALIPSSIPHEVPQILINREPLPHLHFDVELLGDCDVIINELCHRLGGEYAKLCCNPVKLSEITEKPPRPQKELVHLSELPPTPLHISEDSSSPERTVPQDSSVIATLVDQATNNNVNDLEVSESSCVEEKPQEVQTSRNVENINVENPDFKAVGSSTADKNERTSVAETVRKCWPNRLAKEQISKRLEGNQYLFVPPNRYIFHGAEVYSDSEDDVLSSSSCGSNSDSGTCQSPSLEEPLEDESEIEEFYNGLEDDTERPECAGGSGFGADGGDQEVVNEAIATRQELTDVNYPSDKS
Excerpt: as §1, §2

[8] = tested on: C57Bl/6 male mice; test: In vivo aortic pulse wave velocity; settings: young mice, NMN 240 mg/kg/day, 8 weeks
Excerpt: as §1
Aortic pulse wave velocity (aPWV) was measured as described previously (Sindler A. L. et al. 2011, Aging Cell. 10, 429-437; Fleenor B. S. et al. 2012b, Exp Gerontol. 47, 588-594). […] Aortic blood flow velocity was measured with two Doppler probes placed at the transverse aortic arch and abdominal aorta, respectively. Pre-ejection time, the time between the R-wave of the ECG to foot of the Doppler signal, was determined for each site. aPWV was calculated by dividing the distance between the transverse and abdominal probes by the difference in the thoracic and abdominal pre-ejection times.

[9] = design: species or system mice; settings: mouse, in vivo
Excerpt: as §3
Data are presented as mean±SEM in text, figures and tables. All analyses were performed with SPSS. A one-way ANOVA (Analysis of Variance) was used to analyze morphological characteristics, maximum EDD, NO-mediated EDD, EPR spectroscopy, aPWV, elastic modulus, Western blots, and immunohistochemistry. Within-group differences in the maximal EDD dose response to acetylcholine in the absence vs. presence of TEMPOL was determined using two-factor (group×treatment) repeated-measures ANOVA. […]

[10] = biological target: T1, SIRT1; settings: in part by reducing oxidative stress (Gano et al. 2014); cited from earlier work
[11] = tested on: carotid arteries; test: Ex vivo incubation of isolated carotid arteries with TEMPOL, EDD to acetylcholine; design: species or system mice; settings: other groups (YC, YNMN, ONMN); TEMPOL 0.1 mM, 1 hour incubation
Procedure: EDD and endothelium-independent dilation were determined ex vivo in isolated carotid arteries as previously described (Rippe C. et al. 2010, Aging Cell. 9, 304-312; Sindler A. L. et al. 2011, Aging Cell. 10, 429-437). Mice were anesthetized using isoflurane and euthanized by exsanguination via cardiac puncture. The carotid arteries were carefully excised, cannulated onto glass micropipette tips, and secured with nylon (11-0) sutures in individual myograph chambers (DMT Inc., Ann Arbor, Mich., USA) containing buffered physiological saline solutions. The arteries were pressurized to 50 mmHg at 37° C. and were allowed to equilibrate for 45 minutes before experimentation. After submaximal preconstriction with phenylephrine (2 μM), increases in luminal diameter in response to acetylcholine (ACh: 1×10^−9-1×10^−4 M; Sigma-Aldrich Corp.) with and without co-administration of the NO synthase inhibitor, L-NAME, 0.1 mM, 30 minute incubation; (Sigma-Aldrich Corp.) or the superoxide dismutase mimetic 4-Hydroxy-2,2,6,6-tetramethylpiperidine-1-oxyl (TEMPOL, 0.1 mM, 1 hour incubation; Sigma-Aldrich Corp.) were determined. Endothelium-independent dilation was determined by vasodilation in response to the NO donor sodium nitroprusside (SNP: […]-1×10^−4 M; Sigma-Aldrich Corp.).
All dose-response data are presented as percent dilation, i.e. FIGS. 1A, 1C and 2A. […]

SMILES: NC(=O)c1ccc[n+]([C@@H]2O[C@H](COP(=O)([O-])O)[C@@H](O)[C@H]2O)c1 [NMN, nicotinamide mononucleotide]
- aortic SIRT1 protein expression ([1]; old mice): tended to increase
- aortic SIRT1 protein expression ([1]; young mice): increased
- aortic nitrotyrosine abundance ([2]; old mice): decreased; also recorded: markedly reduced
- aortic nitrotyrosine abundance ([2]; young mice): no significant effect
- Endothelium-independent dilation to sodium nitroprusside ([3]; young and old mice, NMN-treated vs controls): not significantly different; also recorded: did not influence
- EDD and NO-mediated dilation ([3]; young mice, NMN 240 mg/kg/day in drinking water, 8 weeks): had no effect
- arterial elastin expression [4]: partially increased; also recorded: increased elastin to levels not significantly different from young mice
- arterial collagen type I expression [5]: reversed; also recorded: reduced arterial collagen type I to levels of young mice
- aortic superoxide production [6]: no significant effect
- vascular SIRT1 activity (ratio of acetylated to total p65 subunit of NFκB) [7]: restored
- aortic pulse wave velocity (aPWV) [8]: no significant effect
- body mass across the four groups [9]: no significant differences

SMILES: O=C(Nc1ccccc1-c1cn2c(CN3CCNCC3)csc2n1)c1cnc2ccccc2n1 [SRT1720]
- EDD in old mice [10]: improves

SMILES: CC1(C)CC(O)CC(C)(C)N1[O] [TEMPOL, 4-hydroxy-2,2,6,6-tetramethylpiperidin-1-oxyl]
- carotid artery EDD in presence of TEMPOL [11]: no significant effect; also recorded: no significant improvement
